Values quoted from earlier work in patent US20070154935A1, “HUMAN OBESITY SUSCEPTIBILITY GENE AND USES THEREOF” (INTEGRAGEN, priority 2002, published 2007).

Experiments:
[1] = test system: healthy controls; details: intranasal application
[2] = test system: massively obese child with leptin deficiency mutation; details: one child with leptin deficiency mutation

Row | Substance | body fat mass [1] | plasma leptin concentrations [1] | weight [1] | treatment outcome of morbid obesity [2]
1 | adrenocorticotropin4-10 (MEHFRWG; Corticotropin; UniProt P01189 141-147, looked up, fragment) [ACTH4-10] | reduced | reduced | reduced | –
2 | recombinant leptin: recombinant leptin given to a child with a leptin deficiency mutation | – | – | – | treated successfully
